According to PMC12597941 (Frontiers in Pharmacology, 2025):

Experiments:
[1] = Untargeted LC-HRMS metabolite profiling after oral PAC administration
Experimental: Animals to be sacrificed at 6 h (only test item-treated animals) were placed in metabolic cages (650-0100, Nalgene) for the collection of urine. Urine was stabilized with a final concentration of 4 mM NaN3 and stored at 4 °C. At 1 h and 6 h after the administration of the vehicle (1 h only) or test items (1 and 6 h), animals from the respective treatment groups were euthanized by CO2 inhalation. Blood was obtained by cardiac puncture and drawn in lithium-heparin-containing vials for the preparation of plasma by centrifugation (4,000 rpm, 4 °C, 10 min). Plasma was stored at −80 °C until bioanalytical analysis. Samples of the mixed intestinal content were obtained by scraping the small intestine, cecum, and large intestine into a 5-mL tube. Tubes were covered with gaseous N2 and stored at −80 °C.
The supernatant was evaporated to dryness and resuspended in 150 µL 1% FA in H2O/ACN (9/1, v/v) for analysis.
Rat intestinal content was first freeze-dried and finely crushed. […] Ethyl acetate extracts were evaporated to dryness and then resuspended in 300 µL 1% FA in H2O/ACN (9/1, v/v) for untargeted LC-HRMS analysis. Internal standards (listed in Supplementary Table S1) were spiked to both the sample types to ensure the performance of the measurements and monitor matrix effect.
Untargeted metabolite profiling was performed using a Vanquish UHPLC coupled with an Orbitrap Fusion Tribrid mass spectrometer (Thermo Fisher Scientific, Waltham, MA, United States of America) fitted with a HESI source. Chromatographic separation was performed on Waters Acquity HSS T3 1.8 µm Column (2.1 mm × 150 mm) (Waters Technologies, United States of America). The injection volume was 5 µL. The flow rate was set at 0.45 mL/min, and the column temperature was 40 °C. […] The gradient was as follows: 0% B from 0 to 2 min, 0%–10% B from 2 to 10 min, 10%–80% B from 10 to 25 min, 80%–100% B from 25 to 26 min, 100% B from 26 to 31 min, 100%–0% B from 31 to 32 min, and 3 min equilibration at 0% B.
Compound discoverer 3.1 (CD, Thermo Fisher Scientific, Waltham, MA, United States of America) was used for untargeted and novel feature detection. Raw files were processed with CD in the following steps: first, spectra were selected from raw data followed by retention time (RT) alignment with RT tolerance of 2 min and 5 ppm mass precision. Then, unknown compounds were detected and grouped with RT tolerance of 0.5 min and 5 ppm mass deviation. Missing values were filled. The composition was predicted based on the exact mass. The compounds were annotated with different types of databases. mzCloud was used to annotate compounds on the MS/MS level with a mass tolerance of 10 ppm. ChemSpider was used to annotate features based on the exact mass with a mass tolerance of 20 ppm.
Relevant features were identified by performing differential analysis between the vehicle and PAC treatment groups in Compound Discoverer software. […] Compound annotations of these features were checked for plausibility, and, if necessary, structural elucidation was manually continued.

[2] = Plasma levels of terpene lactones, flavonol aglycones and PAC metabolites in T-maze mice; type: in vivo
Experimental: Targeted LC-MS/MS was used to quantify known and newly identified PAC metabolites (MRM transitions based on MS2 spectra of the untargeted analysis), as well as main ginkgo terpene lactones and flavonol aglycones in one single run in mouse plasma obtained from the pharmacological experiments (Supplementary Table S1).
The injection volume was 10 µL. […] Data processing was carried out with MassHunter Quantitative Analysis 10.1 software.
Plasma levels of terpene lactones (ginkgolide A, ginkgolide B, and bilobalide) and main ginkgo flavonol aglycones (quercetin, kaempferol, and isorhamnetin) were quantified in samples from animals used in the T-maze model. The detailed protocols for the analysis methods are included in the Supplementary Material.
Quantification of Acetylcholine in plasma […]
as described in the manufacturer’s instructions. […]
for 30 min at room temperature. […]
subtracted and of ACh concentration was calculated.
Flavonol aglycone quantification in plasma […]
methanol. […]
Data processing was conducted with mass hunter quantitative analysis 10.1.
Terpene lactone quantification in plasma […]
An Agilent 7890B GC (Agilent, Santa Clara, CA) coupled to an Agilent 7000D triple-quadrupole MS (Agilent, Santa Clara, CA) was used to analyze all samples. […] Target analytes were analyzed in negative ion chemical ionization with multiple reaction monitoring (MRM) mode using […]

[3] = system: scopolamine-induced working memory impairment; assay: T-maze spontaneous alternation, scopolamine-induced memory impairment; type: in vivo; settings: mice, p.o. 1 h before T-maze; donepezil 0.3 mg/kg
Experimental: To impair short-term memory, mice were injected intraperitoneally (i.p.) with 1 mg/kg scopolamine (S1875, Sigma-Aldrich) or 0.9% NaCl (PZN01399062, Fresenius) 20 min prior to the experimental session. […] Switching from the right to the left arm of the T-maze or vice versa was calculated as correct alternations (%). The method is based on the study by [Deacon (2006)]. At 15 min after the start of the T-maze observation and once the 20 arm entry trials were finalized, animals were euthanized with CO2, and blood was collected by cardiac puncture for EDTA-plasma (Figure 1).
Data were analyzed using GraphPad Prism 10.1.2 (GraphPad Software, La Jolla, CA). Experimental groups were compared using one-way analysis of variance (ANOVA) or two-way ANOVA, followed by Dunnett’s post-test. Vehicle and each active treatment group were compared to the vehicle–scopolamine group (that received vehicle p.o., followed by i.p. injection of scopolamine). For calculation of dose–response curves, reversal of the scopolamine-induced amnesia was calculated. […] For ROS data, baseline ROS levels without treatment were set as 0% inhibition. […] Emax, and relative ID50 values for the T-maze in vivo studies were taken directly from the calculated dose–response curve data provided by Graph Pad Prism. […]

[4] = after oral PACs, c = detected in mice plasma

| Compound | Compartment in which the metabolite was detected [1, 4] | Time points at which the metabolite was detected ([1]; after oral PACs) [h] | other results |
| --- | --- | --- | --- |
| O=C(O)c1cc(O)c(O)c(O)c1 [M01, Gallic acid] |  |  | Time points at which the metabolite was detected ([1]; rat, in vivo, po): 6 h; plasma level versus PAC dose ([2]; plasma of PAC-treated mice, approximately 1 h 15 min after administration): dose-dependent increase |
| Oc1cc(O)c2c(c1)O[C@H](c1cc(O)c(O)c(O)c1)[C@@H](O)C2 [M04, Gallocatechin] | Intestine |  |  |
| COc1cc(C=O)ccc1O[C@@H]1O[C@H](C(=O)O)[C@@H](O)[C@H](O)[C@H]1O [M07, Vanillin glucuronide] | Urine |  |  |
| O=C1CCC(Cc2cc(O)c(O)c(O)c2)O1 (stereo not shown) [M08, 5-(3',4',5'-trihydroxyphenyl)-gamma-Valerolactone] | Intestine | 6 |  |
| Oc1cc(O)c(CC(O)Cc2cc(O)c(O)c(O)c2)c(O)c1 (stereo not shown) [M09, 1-(3‘,4‘,5‘-trihydroxyphenyl)-3-(2‘‘,4‘‘,6‘‘-trihydroxyphenyl)propan-2-ol] | Intestine | 6 |  |
| Oc1cc(O)c2c(c1)O[C@H](c1cc(O)c(O)c(O)c1)[C@H](O)C2 [M10, Epigallocatechin] | Intestine |  |  |
| Oc1cc(O)c2c(c1)OC(c1ccc(O)c(O)c1)C(O)C2 (stereo not shown) [M11, Catechin] | Intestine | 6 |  |
| O=C1CCC(Cc2cc(O)cc(O)c2)O1 (stereo not shown) [M12, 5-(3‘,5‘-Dihydroxyphenyl)-γ-Valerolactone] | Intestine | 6 |  |
| O=C1CCC(Cc2ccc(O)c(O)c2)O1 (stereo not shown) [M13, 5-(3‘,4‘-Dihydroxyphenyl)-γ-Valerolactone] | Intestine | 6 |  |
| Oc1cc(O)c(CC(O)Cc2ccc(O)c(O)c2)c(O)c1 (stereo not shown) [M14, 1-(3′,4′-dihydroxyphenyl)-3-(2″,4″,6″-trihydroxyphenyl)propan-2-ol] | Intestine | 6 |  |
| O=C(O[C@@H]1Cc2c(O)cc(O)cc2O[C@@H]1c1cc(O)c(O)c(O)c1)c1cc(O)c(O)c(O)c1 [M15, Epigallocatechin gallate] | Intestine | 1 |  |
| COc1cc(C(O)C(O)/C(=C\C(=O)O)c2ccccc2)cc(O)c1O (stereo not shown) [M17, (2Z)-5-(3,4-dihydroxy-5-methoxyphenyl)-4,5-dihydroxy-3-phenylpent-2-enoic acid] | Intestine | 6 |  |
| O=C(O)[C@H]1O[C@@H](Oc2c(-c3cc(O)c(O)c(O)c3)oc3cc(O)cc(O)c3c2=O)[C@H](O)[C@@H](O)[C@@H]1O [M18, Myricetin 3-O-glucuronide] | Intestine | 1 |  |
| COc1cc(-c2oc3cc(O)cc(O)c3c(=O)c2O[C@@H]2O[C@H](C(=O)O)[C@@H](O)[C@H](O)[C@H]2O)cc(O)c1O [M19, 5'-O-methyl Myricetin 3-O-glucuronide] | Intestine | 1 |  |
| O=c1c(O)c(-c2cc(O)c(O)c(O)c2)oc2cc(O)cc(O)c12 [M20, Myricetin] |  |  | Compartment in which the metabolite was detected ([1]; rat, in vivo, po): Intestine; Time points at which the metabolite was detected ([1]; rat, in vivo, po): 1h, 6h |
| COc1cc(O)cc2oc(-c3cc(O)c(O)c(O)c3)c(O)c(=O)c12 [M21, 5-O-Methylmyricetin] | Urine | 6 |  |
| COc1cc2c(cc1OC)C(=O)C(CC1CCN(Cc3ccccc3)CC1)C2 (stereo not shown) [donepezil] |  |  | effect on scopolamine-induced impairment of correct alternations [3]: largely prevented |
| Gallic acid glucuronide [M03] | Urine |  |  |
| Gallic acid-O-sulphate [M02] | Plasmac |  | time of peak plasma level ([2]; mouse plasma, after PAC fraction 100 mg/kg p.o., peak area): 1 h |
| Methylgallic acid-O-sulphate [M06] | Urine |  |  |
